Source: ChEMBL document CHEMBL3272091, “Ergot alkaloids. Synthesis of 6-alkyl-8-ergolenes and 6-methyl-8-aminoergolines as potential prolactin inhibitors” (1977)
Active and inactive are the calls of the source. The rule behind the calls is not given here.

Experiments:
Rattus norvegicus [1] = test: Prolactin stimulation ability in Sprague-Dawley rat at 10 ug/ml, ip administered 18 hrs post reserpine treatment measured after 1 hr by RIA; format: functional, organism-based
Rattus norvegicus [2] = test: Prolactin inhibition ability in Sprague-Dawley rat at 10 ug/ml, ip administered 18 hrs post reserpine treatment measured after 1 hr by RIA relative to ergoconine; format: functional
Rattus norvegicus [3] = test: Prolactin inhibition ability in Sprague-Dawley rat at 10 ug/ml, ip administered 18 hrs post reserpine treatment measured after 1 hr by RIA; format: functional
Rattus norvegicus [4] = test: Prolactin inhibition ability in Sprague-Dawley rat at 10 ug/ml, ip administered 18 hrs post reserpine treatment measured after 1 hr by RIA relative to lergotrile; format: functional

| Compound | inhibition (Rattus norvegicus [1]) | inhibition (INH) (Rattus norvegicus [2]) [%] | inhibition (INH) (Rattus norvegicus [3]) [%] | inhibition (INH) (Rattus norvegicus [4]) [%] |
| --- | --- | --- | --- | --- |
| CN1C[C@H](NC(=O)CBr)C[C@@H]2c3cccc4[nH]cc(c34)C[C@H]21 | Active |  |  |  |
| N#CN1CC(CO)=C[C@@H]2c3cccc4[nH]cc(c34)C[C@H]21 |  | 67 | 25 |  |
| OCC1=C[C@@H]2c3cccc4[nH]cc(c34)C[C@H]2NC1 |  | 67 | 58 |  |
| CCOC(=O)CN1CC(CO)=C[C@@H]2c3cccc4[nH]cc(c34)C[C@H]21 |  |  | 14 | 77 |
| OCC1=C[C@@H]2c3cccc4[nH]cc(c34)C[C@H]2N(Cc2ccccc2)C1 |  |  |  | 60 |
| CN1C[C@H](NC(=O)CCl)C[C@@H]2c3cccc4[nH]cc(c34)C[C@H]21 | Active |  |  |  |
| CCC(=O)N1CC(CO)=C[C@@H]2c3cccc4[nH]cc(c34)C[C@H]21 |  |  |  | 77 |
| CCN1CC(CO)=C[C@@H]2c3cccc4[nH]cc(c34)C[C@H]21 |  |  | 63 | 77 |
| CN1CC(CO)=C[C@@H]2c3cccc4[nH]cc(c34)C[C@H]21 |  | 75 | 71 |  |
| CN1C[C@H](N)C[C@@H]2c3cccc4[nH]cc(c34)C[C@H]21 |  |  | 57 |  |
| CCCN1CC(CO)=C[C@@H]2c3cccc4[nH]cc(c34)C[C@H]21 |  |  | 72 | 77 |
| CC(=O)N1CC(CO)=C[C@@H]2c3cccc4[nH]cc(c34)C[C@H]21 | Active |  |  |  |
